From patent US20230390353A1, “PHARMACEUTICAL COMPOSITION FOR TREATING MYOCARDIAL ISCHEMIA AND PREPARATION METHOD THEREFOR” (TASLY PHARMACEUTICAL GROUP CO., LTD., priority 2021, published 2023)

How the values were obtained:
normal mice = experiment: Weight-bearing swimming time in normal mice; assay type: in vivo; settings: normal BALB/c mice, 7 days pre-administration, 30 min after last administration, 5% body weight load; ranolazine 205 mg/kg, traditional Chinese medicine 68 mg/kg, composition 34 + ranolazine 102 mg/kg
Method: According to the reference, 40 male mice are randomly divided into 4 groups (n=10): a normal group, a ranolazine group, a traditional Chinese medicine group and a pharmaceutical composition group of the present invention are administered in advance for 7 days, and the mice in the normal group are administered intragastrically with equivalent distilled water. Swimming tests are performed 30 min after the last administration. Mice are fixed a 5% weight of its body weight on the tail, and then placed in a large container filled with water of about 20 cm. Water should not be overfilled, so as to prevent mice from jumping out. The mice are forced to swim to exhaustion until they swim to death, and the time is recorded as the weight-bearing swimming time of the mice. See Table 5 for grouping and dose setting.

[1] = test system: rats with myocardial ischemia; experiment: Weight-bearing swimming duration test in rats with myocardial ischemia; assay type: in vivo, SD rats; settings: gavage, Day 30, 60 min after dose, 5% load
From the text: 110 experimental animals were purchased, of which 10 animals were set as a sham-operation group, and 100 animals were used for modeling left anterior descending coronary artery ligation. After modeling, surviving rats were randomly divided into a vehicle control group, a traditional Chinese medicine group, a ranolazine group 1, a ranolazine group 2, a ranolazine group 3, a pharmaceutical composition group 1 of the present invention and a pharmaceutical composition group 2 of the present invention according to body weight. After therapeutic administration for 28 days, the rats from the vehicle control group were given the same amount of menstruum by gavage. On the 28th day of intragastric administration, 6 rats in each group were randomly selected for echocardiography. After intragastric administration of 60 min on Day 30, a weight-bearing swimming test was performed, and animal samples were taken after the end of weight-bearing swimming. After intragastric administration of 60 min on Day 30, the experimental animals were subjected to the weight-bearing swimming test. After weighing, the rats, fixed a 5% weight of its body weight on the tail were placed in a transparent container filled with water with an inner diameter of 19 cm and a water depth of 30 cm. The water temperature was 25±2° C. The rats swimming to exhaustion were judged by the standard of losing balance and the head submerged for more than 10 seconds. The time of swimming was recorded as the time of weight-bearing swimming.

[2] = test system: rats with myocardial ischemia; experiment: Echocardiography (cardiac function) in rats with myocardial ischemia; assay type: in vivo, SD rats; settings: Day 28, 60 min after gavage
From the text: After modeling, surviving rats were randomly divided into a vehicle control group, a traditional Chinese medicine group, a ranolazine group 1, a ranolazine group 2, a ranolazine group 3, a pharmaceutical composition group 1 of the present invention and a pharmaceutical composition group 2 of the present invention according to body weight. After therapeutic administration for 28 days, the rats from the vehicle control group were given the same amount of menstruum by gavage. On the 28th day of intragastric administration, 6 rats in each group were randomly selected for echocardiography. After intragastric administration of 60 min on Day 30, a weight-bearing swimming test was performed, and animal samples were taken after the end of weight-bearing swimming. After intragastric administration of 60 min on Day 28, 6 rats in each group were randomly selected, and the cardiac function was detected by a portable b-ultrasound instrument. The changes of cardiac ejection fraction (EF) and E/A were detected.

myocardial Na^+—K^+-ATP = experiment: Energy metabolism related enzyme detection, myocardial Na+-K+-ATP activity; assay type: in vivo, SD rats; settings: myocardium of myocardial ischemia rats after treatment
From the text: (§1) 110 experimental animals were purchased, of which 10 animals were set as a sham-operation group, and 100 animals were used for modeling left anterior descending coronary artery ligation. After modeling, surviving rats were randomly divided into a vehicle control group, a traditional Chinese medicine group, a ranolazine group 1, a ranolazine group 2, a ranolazine group 3, a pharmaceutical composition group 1 of the present invention and a pharmaceutical composition group 2 of the present invention according to body weight. After therapeutic administration for 28 days, the rats from the vehicle control group were given the same amount of menstruum by gavage. On the 28th day of intragastric administration, 6 rats in each group were randomly selected for echocardiography. After intragastric administration of 60 min on Day 30, a weight-bearing swimming test was performed, and animal samples were taken after the end of weight-bearing swimming.

[3] = test system: myocardial Ca^2+—Mg^2+-ATP; experiment: Energy metabolism related enzyme detection, myocardial Ca2+-Mg2+-ATP activity; assay type: in vivo, SD rats; settings: myocardium of myocardial ischemia rats after treatment
From the text: as §1

[4] = test system: rats with myocardial ischemia; experiment: Myocardial histopathology detection in rats with myocardial ischemia; assay type: in vivo, SD rats; settings: myocardial pathology
From the text: as §1, with “swimming. […] The administration of the pharmaceutical composition of the present invention could reduce myocardial fibrosis to varying degrees, causing a certain protective effect on the ischemic myocardium, and the effect of the pharmaceutical composition group 2 of the present invention was better.” for “swimming.”

Compound: COc1ccccc1OCC(O)CN1CCN(CC(=O)Nc2c(C)cccc2C)CC1 (racemic) [Ranolazine, (±)-N-(2,6-dimethylphenyl)-4-[2-hydroxy-3-(2-methoxyphenoxy)propyl]-1-piperazine acetamide]
- Swimming time (normal mice): 3746 ± 1837 s
- Weight-bearing swimming duration ([1]; ranolazine group 1, 100 mg/kg): 1927 ± 1450 s
- Weight-bearing swimming duration ([1]; ranolazine group 2, 50 mg/kg): 1268 ± 513 s
- Weight-bearing swimming duration ([1]; ranolazine group 3, 25 mg/kg): 1108 ± 358 s
- E/A ([2]; ranolazine group 1, 100 mg/kg): 1.10 ± 0.09
- Ejection Fraction (EF %) ([2]; ranolazine group 1, 100 mg/kg): 55.32 ± 2.76 %
- E/A ([2]; ranolazine group 2, 50 mg/kg): 1.06 ± 0.13
- Ejection Fraction (EF %) ([2]; ranolazine group 2, 50 mg/kg): 50.52 ± 2.15 %
- E/A ([2]; ranolazine group 3, 25 mg/kg): 0.92 ± 0.08
- Ejection Fraction (EF %) ([2]; ranolazine group 3, 25 mg/kg): 45.03 ± 1.57 %
- Na^+—K^+-ATP (myocardial Na^+—K^+-ATP; ranolazine group 1, 100 mg/kg): 46.04 ± 8.57 µmol/h/g
- Na^+—K^+-ATP (myocardial Na^+—K^+-ATP; ranolazine group 2, 50 mg/kg): 47.10 ± 6.57 µmol/h/g
- Na^+—K^+-ATP (myocardial Na^+—K^+-ATP; ranolazine group 3, 25 mg/kg): 34.98 ± 9.26 µmol/h/g
- Ca^2+—Mg^2+-ATP ([3]; ranolazine group 1, 100 mg/kg): 37.99 ± 8.20 µmol/h/g
- Ca^2+—Mg^2+-ATP ([3]; ranolazine group 2, 50 mg/kg): 50.92 ± 6.18 µmol/h/g
- Ca^2+—Mg^2+-ATP ([3]; ranolazine group 3, 25 mg/kg): 29.96 ± 7.66 µmol/h/g
- Basically normal (number of cases) ([4]; ranolazine group 1, 100 mg/kg): 4 number of cases
- Mild (cardiac muscle fiber partially replaced by collagen fiber) ([4]; ranolazine group 1, 100 mg/kg): 1 number of cases
- Severe (decreased myocardial thickness, and occurrence of transmural myocardial infarction) ([4]; ranolazine group 1, 100 mg/kg): 1 number of cases
- Basically normal (number of cases) ([4]; ranolazine group 2, 50 mg/kg): 3 number of cases
- Mild (cardiac muscle fiber partially replaced by collagen fiber) ([4]; ranolazine group 2, 50 mg/kg): 1 number of cases
- Severe (decreased myocardial thickness, and occurrence of transmural myocardial infarction) ([4]; ranolazine group 2, 50 mg/kg): 2 number of cases
- Basically normal (number of cases) ([4]; ranolazine group 3, 25 mg/kg): 2 number of cases
- Mild (cardiac muscle fiber partially replaced by collagen fiber) ([4]; ranolazine group 3, 25 mg/kg): 2 number of cases
- Severe (decreased myocardial thickness, and occurrence of transmural myocardial infarction) ([4]; ranolazine group 3, 25 mg/kg): 2 number of cases
